Source: patent US7410553B2, “Building construction felt paper with biocide/anti-microbial treatment” (Atlas Roofing Corporation, priority 2005, dated 2008)
Read-outs that look alike come from different tables or passages of the source. Marks after values point to notes of the source that are not given here.

Key:
other molds = system: other molds
Description: (§1) As mentioned above, the example apparatus of FIG. 1 and any suitable biocide can be used for treating a nonwoven mat. Such biocides include but are not limited to those mentioned and evaluated, e.g., ZPT (zinc pyrithione), OPP (ortho-Phenyl Phenol), and Microbe Shield. […] A large number of differing levels of treatment were made and samples of each dosage rate retained.
(§2) In order to establish a range of dosage levels that might quantify their effectiveness, four (4) dosage levels were utilized: (a) 62-grams/MSF; (2) 86-grams/MSF; (3) 116-grams/MSF, and (4) 123-grams/MSF; plus a zero grams/MSF(0) control. The unit of measure: “per MSF” or per “Thousand Square Feet”, rather than a unit of weight; e.g., “per Ton”, is the most common unit of sale for many special nonwoven webs.
(§3) After the biocide was applied to the nonwoven web at the varying dosage levels, two different testing facilities were used to evaluate these samples: The Forest Research Labs of Mississippi State University (MSU), and the laboratory of Arch Chemicals, Inc. (“Arch”). MSU evaluated the treated samples for resistance to mold using testing procedures of, e.g., ASTM D 6329-98, “Standard Guide for Developing Methodology for Evaluating the Ability of Indoor Materials to Support Microbial Growth Using Static Environmental Chambers,” and Arch Chemicals utilized ASTM G 21-96 (Re-approved 2002), “Standard Practice for Determining Resistance of Synthetic Polymeric Materials to Fungi”, both from ASTM International, PA, USA.
(§4) The MSU testing used the fungus Stachybotrys chartarum, but allowed “other molds” to enter the chamber. The Stachybotrys chartarum (ATCC 9182) was grown on Potato Dextrose Agar (“PDA”) and Sabouraud Dextrose Agar and allowed to sporulate (i.e., produce spores). This procedure followed ASTM C 1338-00, Standard Test Method for Determining Fungi Resistance of Insulation Materials and Facings. ASTM International, PA., USA. The solution was adjusted with additional sterile water until a spore count of approximately 940,000 cells per ml was obtained. This solution was the inoculum. A portion of this solution was also plated onto PDA to confirm the viable cell count. In the test, the nonwoven felt pieces were laid out with their treated side up, and inoculated with the spore suspension by an atomizer (ASTM C 1338-00). The pieces were allowed to air dry for several hours before being placed into the static environmental chambers. There were five replicates for each sample set (62-grams/MSF; 86-grams/MSF; 116-grams/MSF, and 123-grams/MSF; plus a zero (0) control) for each sampling period (2 weeks, 4 weeks, and 6 weeks).
(§5) The numbers in Table 3 are in colony forming units (CFUs), a well known standard of measure prescribed, e.g., by ASTM 6329-98.

[1] = system: Stachybotrys chartarum (ATCC 9182)
Description: as §1, §2, §3, §4, §5

Penicillium funiculosum = assay: Agar-Plate Test Method (modified ASTM G-21), radial mycelial growth on biocide-containing agar; assay type: cell-based
Protocol: (§6) Five biocides were chosen for a comparative evaluation for inhibition activity against three common mold fungi. The evaluation was performed at the Forest Research Labs of Mississippi State University in Starkville, Miss. (“MSU”) using a substantially modified version of ASTM G-21, termed the “The Agar-Plate Test Method”. This method provides a rapid screening test for the evaluation of biocides against a wide variety of microorganisms.
(§7) Five (5) biocide compositions (“biocides”) were evaluated using the Agar-Plate Test Method: (1) Microbe Shield, (2) Zinc Pyrithione (ZPT), (3) ortho-Phenyl Phenol, (4) Borogard ZB, and (5) a mixture evaluated of 50% Zinc Pyrithione with 50% Borogard ZB. These biocide compositions were added to autoclaved fungal media at different concentrations. […] Plugs of specific fungi were inoculated onto agar plates containing the different biocides/concentrations.
(§8) For terminology, “hypha” (singular) and “hyphae” (plural) is/are a loose network of delicate filaments in a fungus. […] (plus the adjective form “mycelial”) is/are the main part of fungus, consisting of the feeding and reproducing hyphae, that forms the body of a fungus. Radial growth of a mycelia is measured and plotted against concentration. A linear regression is run to estimate the biocide concentration that inhibits radial growth by 50%. This Inhibitory Concentration is called the IC50.
(§9) The five (5) different biocides that were involved in the comparative evaluations were tested at four (4) concentrations per biocide composition, plus a control (no biocide). The biocides were tested against three common mold fungi (Aspergillus niger, Cladosporium cladosporioides, and Penicillium funiculosum) with five (5) replicates for every treatment combination. The biocides that were tested and their concentrations were (1) Microbe Shield at 0, 3, 15, 75 and 375 ppm (“Parts Per Million”) ai (“Active Ingredient”); (2) Zinc Pyrithione at 0, 3, 15, 75 and 375 ppm ai; (3) ortho-Phenyl Phenol (“OPP”) at 0, 3, 15, 75 and 375 ppm ai; (4) Borogard ZB at 0, 10, 50, 250, and 1250 ppm ai; and (5) the 50:50 mixture of Zinc Pyrithione and Borogard ZB at 0, 1.5/5.0, 7.5/25, 37.5/125, and 187.5/625 ppm ai.
(§10) Stock concentrations of each biocide were dissolved or suspended in water or acetone (only OPP was dissolved in acetone) to a concentration that allowed 1 ml of stock to be added to 250 ml of media in order to provide the highest required biocide concentration. Stocks were diluted in a 5 fold series to match the concentrations required. For each biocide concentration, 250 ml of Sabouraund Dextrose Agar in water was autoclaved and then cooled to 50° C. Then 1 ml of the appropriate biocide concentration was added to each flask. Control flasks received 1 ml of water or acetone (for OPP). Media was mixed, dispensed into Petri dishes and allowed to cool. Each biocide test used 90 agar plates including controls.
(§11) A […] plug of agar was removed from every plate at the time of each study. A plug from an agar plate containing one of the fungi was inserted into the hole. The plug of fungi was taken from the leading edge of a fungal colony. Several plates of fungi were required for each study. The studies were grouped by fungi. The Cladosporium cladosporioides study began first; the Aspergillus niger study began next; and the Penicillium funiculosum study began last. Mycelial growth was measured for every plate in each study. Fast growing species were measured daily and slower growing species were measured every 2-3 days. All studies were carried for at least two weeks or until growth leveled out. Digital photographs were taken at different times during each fungal study.
(§12) The average for the five replicates of each biocide concentration was determined and the averages plotted as growth over time for each biocide.

Aspergillus niger = assay: as above; assay type: cell-based; conditions: for IC50 (ppm) Aspergillus niger: linear regression of radial growth
Protocol: as §6, §7, §8, §9, §10, §11, §12

[2] = system: Cladosporium cladosporioides; assay: as above; assay type: cell-based
Protocol: as §6, §7, §8, §9, §10, §11, §12

[3] = by one of California's hazardous materials watchdog organizations; NIOSH does not draw that conclusion; cited from earlier work
[4] = nonwoven felt with 62-g/MSF ZPT, Week Number 2
[5] = nonwoven felt with 62-g/MSF ZPT, Week Number 4
[6] = nonwoven felt with 62-g/MSF ZPT, Week Number 6
[7] = nonwoven felt with 86-g/MSF ZPT, Week Number 2
[8] = nonwoven felt with 86-g/MSF ZPT, Week Number 4
[9] = nonwoven felt with 86-g/MSF ZPT, Week Number 6
[10] = nonwoven felt with 116-g/MSF ZPT, Week Number 2
[11] = nonwoven felt with 116-g/MSF ZPT, Week Number 4
[12] = nonwoven felt with 116-g/MSF ZPT, Week Number 6
[13] = nonwoven felt with 123-g/MSF ZPT, Week Number 2
[14] = nonwoven felt with 123-g/MSF ZPT, Week Number 4
[15] = nonwoven felt with 123-g/MSF ZPT, Week Number 6
[16] = concluded from Table 3 and Table 4
[17] = ppm ai in agar, linear regression of radial growth
[18] = ppm ai in agar, totally inhibits fungal growth
[19] = footnote a: extrapolation outside of the test concentration range

Compound: zinc pyrithione [Zn Pyrithione]
- Other Mold colony forming units (other molds; [4]): 880 CFUs
- Other Mold colony forming units (other molds; [5]): 3360 CFUs
- Other Mold colony forming units (other molds; [6]): 19730 CFUs
- Other Mold colony forming units (other molds; [7]): 530 CFUs
- Other Mold colony forming units (other molds; [8]): 3450 CFUs
- Other Mold colony forming units (other molds; [9]): 4100 CFUs
- Other Mold colony forming units (other molds; [10]): 67 CFUs
- Other Mold colony forming units (other molds; [11]): 125 CFUs
- Other Mold colony forming units (other molds; [12]): 7540 CFUs
- Other Mold colony forming units (other molds; [13]): 0 CFUs
- Other Mold colony forming units (other molds; [14]): 54 CFUs
- Other Mold colony forming units (other molds; [15]): 5380 CFUs
- mold growth in the MSU test ([1]; biocide dose of 62-grams ZPT per MSF): mold DOES grow
- amount of biocide at which mold resistance is optimum [1, 16]: ≥ 100 grams per MSF (per side)
- amount of biocide at which significant mold resistance is imparted [1, 16]: ≥ 50 grams per MSF per side
- Stachybotrys colony forming units [1, 4]: 0 CFUs
- Stachybotrys colony forming units [1, 5]: 680 CFUs
- Stachybotrys colony forming units [1, 6]: 3710 CFUs
- Stachybotrys colony forming units [1, 7]: 0 CFUs
- Stachybotrys colony forming units [1, 8]: 390 CFUs
- Stachybotrys colony forming units [1, 9]: 1110 CFUs
- Stachybotrys colony forming units [1, 10]: 0 CFUs
- Stachybotrys colony forming units [1, 11]: 0 CFUs
- Stachybotrys colony forming units [1, 12]: 0.2 CFUs
- Stachybotrys colony forming units [1, 13]: 0 CFUs
- Stachybotrys colony forming units [1, 14]: 0.4 CFUs
- Stachybotrys colony forming units [1, 15]: 0 CFUs
- IC50 (ppm) Penicillium Funiculosum (Penicillium funiculosum; [17]): 8.0 ppm
- MIC (ppm) Penicillium Funiculosum (Penicillium funiculosum; [18]): 16.2 ppm
- IC50 (ppm) Aspergillus niger (Aspergillus niger; ppm ai in agar): 9.2 ppm
- MIC (ppm) Aspergillus niger (Aspergillus niger; [18]): 21.2 ppm
- IC50 (ppm) Cladosporium cladosporioides [2, 17]: ≤ 1.8^b ppm
- MIC (ppm) Cladosporium cladosporioides [2, 18]: ≤ 15^b ppm

Compound: Oc1ccccc1-c1ccccc1 [OPP, ortho-Phenyl Phenol]
- carcinogenicity rating [3]: human carcinogen
- MIC (Penicillium funiculosum; Talaromyces funiculosus, read-out: MIC (ppm) Penicillium Funiculosum): ≤ 375 µg/mL
- IC50 (ppm) Penicillium Funiculosum (Penicillium funiculosum; [17]): ≤ 212.6^b ppm
- MIC (Aspergillus niger; Aspergillus niger, read-out: MIC (ppm) Aspergillus niger): 84.5 µg/mL
- IC50 (ppm) Aspergillus niger (Aspergillus niger; ppm ai in agar): 16.3 ppm
- MIC ([2]; Cladosporium cladosporioides, read-out: MIC (ppm) Cladosporium cladosporioides): ≤ 375 µg/mL
- IC50 (ppm) Cladosporium cladosporioides [2, 17]: ≤ 203.8^b ppm

Compound: CCCCCCCCCCCCCCCCCC[N+](C)(C)CCC[Si](OC)(OC)OC.[Cl-] [Microbe Shield, 3-trimethixysilylpropyldimethyloctadecyl ammonium chloride]
- IC50 (ppm) Penicillium Funiculosum (Penicillium funiculosum; [19]): 670^a ppm
- MIC (ppm) Penicillium Funiculosum (Penicillium funiculosum; [19]): 1289^a ppm
- MIC (ppm) Aspergillus niger (Aspergillus niger; [19]): 625^a ppm
- IC50 (ppm) Aspergillus niger (Aspergillus niger; ppm ai in agar): 286 ppm
- IC50 (ppm) Cladosporium cladosporioides [2, 19]: 2025^a ppm
- MIC (ppm) Cladosporium cladosporioides [2, 19]: 5575^a ppm
